Experimental data published in patent EP0326418A1, “GRF analogs” (THE UPJOHN COMPANY, priority 1988, dated 1989).
Like-named read-outs stand apart in the source and are kept apart here. Where a SMILES comes first, the peptide text is derived from it. Where no end group is shown, it is not given here. [ ]: non-standard residue; d: D form. The star is where a group is joined. Desaminotyrosyl = O=C(CCc1ccc(O)cc1)*; Cya = N[C@@H](CS(=O)(=O)O)C(=O)O

Columns and labels:
[1] = tested on: bovine anterior pituitary cell culture; assay type: cell-based
[2] = proteolytic stability in bovine plasma (HPLC, modified Frohman method); settings: for remaining at 1 h: bovine plasma
meal-fed Holstein steers = assay: serum growth hormone (GH) response after intravenous injection in steers (Procedure B); assay type: in vivo; settings: for area under the GH response curve: in comparison to bGRF(1-44)NH₂ (100%), first study
From the text: The synthetic peptides prepared in Examples 1, 2 and 3 (Compounds 1, 2 and 3 respectively), bGRF(1-44)NH2 and […] bGRF(1-32)NH2 were also given to meal-fed Holstein steers by intravenous injection (Procedure B) and the serum growth hormone (GH) response evaluated. […] In comparison to bGRF(1-44)NH2 (100%), the area under the GH response curve was 122% for […] bGRF(1-32)NH2, 100% for Compound #1, 106% for Compound #2, and 111% for Compound #3. Holstein steers (265 +/- 5kg) were housed in individual stalls 18-20°C) and exposed to 16h light:8h darkness (lights on at 0400h). Steers are meal-fed once daily at 1000h and trained to consume their total daily feed intake in 2 h. The diet consisted of rolled corn plus a mineral/vitamin premix and alfalfa hay cubes fed at 160% maintenance energy requirements on a bodyweight basis. Steers gained approximately 0.75 kg/h/d. In a 5 x […] Latin Square design 10 steers were assigned randomly to receive the following treatments. (a) bGRF(1-44)NH2, (b) […] bGRF(1-32)NH2, (c) Compound #3, (d) Compound #1, and (e) Compound #2. The GRFs were dissolves in saline (10μg/ml) and administered at 3nM/100 kg bodyweight as single iv injection at 0800 h, 2 h between feeding. A cannula was inserted into a jugular vein at least one day before treatment. Blood (6 ml) was collected at 20-min interval from 40 min before until 120 min after injection with additional samples collected at 5, 10 and 15 min after injection. Serum obtained from the samples was assayed from GH concentration. The number of steers responding to injection fo the various GRFs tested (P=0.42) ranged from 9 of 10 to 10 of 10 depending on the treatment. Using procedure B, compounds were tested for growth hormone release in steers. In comparison to the standard bGRF(1-44)NH2 (Area 100%), the test compounds gave the following relative growth hormone areas: Compound 4, 233%; compound 5, 140%; compound 6, 160%; compound 7, 126%; compound 8, 307%; compound 9, 260%; and compound 11, 173%.

[3] = another assay, potency as a fraction of bGRF(1-44)NH₂
[4] = 3nM/100 kg bodyweight, single iv injection

Compound: CC[C@H](C)[C@H](NC(=O)[C@H](C)NC(=O)[C@H](CS(=O)(=O)O)NC(=O)[C@@H](C)NC(=O)CCc1ccc(O)cc1)C(=O)N[C@@H](Cc1ccccc1)C(=O)N[C@H](C(=O)N[C@@H](CC(N)=O)C(=O)N[C@@H](CO)C(=O)N[C@@H](Cc1ccc(O)cc1)C(=O)N[C@@H](CCCNC(=N)N)C(=O)N[C@@H](CCCCN)C(=O)N[C@H](C(=O)N[C@@H](CC(C)C)C(=O)NCC(=O)N[C@@H](CCC(N)=O)C(=O)N[C@@H](CC(C)C)C(=O)N[C@@H](CO)C(=O)N[C@@H](C)C(=O)N[C@@H](CCCNC(=N)N)C(=O)N[C@@H](CCCCN)C(=O)N[C@@H](CC(C)C)C(=O)N[C@@H](CC(C)C)C(=O)N[C@@H](CCC(N)=O)C(=O)N[C@@H](CC(=O)O)C(=O)N[C@H](C(=O)N[C@@H](CC(C)C)C(=O)N[C@@H](CC(N)=O)C(=O)N[C@@H](CCCNC(=N)N)C(=O)N[C@@H](CCC(N)=O)C(=O)N[C@@H](CCC(N)=O)C(=O)NCC(N)=O)[C@@H](C)CC)C(C)C)[C@@H](C)O [Compound 6, Desamino-Tyr¹, D-Ala²,, Cya³, Leu²⁷-bGRF(1-32)NH₂] (Desaminotyrosyl-[dA][Cya]AIFTNSYRKVLGQLSARKLLQDILNRQQG-NH2)
- the potency of bGRF(1-44)NH₂ [1]: 0.26
- remaining at 1 h [2]: 51%

Compound: CC[C@H](C)[C@H](NC(=O)[C@H](C)NC(=O)[C@H](CS(=O)(=O)O)NC(=O)[C@H](C)NC(=O)CCc1ccc(O)cc1)C(=O)N[C@@H](Cc1ccccc1)C(=O)N[C@H](C(=O)N[C@@H](CO)C(=O)N[C@@H](CO)C(=O)N[C@@H](Cc1ccc(O)cc1)C(=O)N[C@@H](CCCNC(=N)N)C(=O)N[C@@H](CCCNC(=N)N)C(=O)N[C@H](C(=O)N[C@@H](CC(C)C)C(=O)N[C@@H](C)C(=O)N[C@@H](CCC(N)=O)C(=O)N[C@@H](CC(C)C)C(=O)N[C@@H](CO)C(=O)N[C@@H](C)C(=O)N[C@@H](CCCNC(=N)N)C(=O)N[C@@H](CCCNC(=N)N)C(=O)N[C@@H](CC(C)C)C(=O)N[C@@H](CC(C)C)C(=O)N[C@@H](CCC(N)=O)C(=O)N[C@@H](CC(=O)O)C(=O)N[C@H](C(=O)N[C@@H](CC(C)C)C(=O)N[C@@H](CO)C(=O)N[C@@H](CCCNC(=N)N)C(=O)N[C@@H](CCC(N)=O)C(=O)N[C@@H](CCC(N)=O)C(=O)NCC(N)=O)[C@@H](C)CC)C(C)C)[C@@H](C)O [Compound 12, DesaminoTyr¹, Cya³, Ser⁸, Arg¹², Ala¹⁵, Leu²⁷, Ser²⁸, bGRF(1-32)NH₂] (Desaminotyrosyl-A[Cya]AIFTSSYRRVLAQLSARRLLQDILSRQQG-NH2)
- the potency of bGRF(1-44)NH₂ [1, 3]: 0.54
- remaining at 1 h [2]: 67%

Compound: Cya²⁵, Leu²⁷bGRF(1-32)NH₂ [Compound 1]
- the potency of bGRF(1-44)NH₂ ([1]; first assay, potency as a fraction of bGRF(1-44)NH₂): 0.53
- serum growth hormone (GH) response, difference from Leu²⁷ bGRF(1-32)NH₂ (meal-fed Holstein steers; 3nM/100 kg bodyweight, single iv injection, compared with Leu²⁷ bGRF(1-32)NH₂): No significant differences
- area under the GH response curve (meal-fed Holstein steers; [4]): 100%

Compound: CC[C@H](C)[C@H](NC(=O)[C@H](C)NC(=O)[C@H](CS(=O)(=O)O)NC(=O)[C@@H](C)NC(=O)[C@@H](N)Cc1ccc(O)cc1)C(=O)N[C@@H](Cc1ccccc1)C(=O)N[C@H](C(=O)N[C@@H](CC(N)=O)C(=O)N[C@@H](CO)C(=O)N[C@@H](Cc1ccc(O)cc1)C(=O)N[C@@H](CCCNC(=N)N)C(=O)N[C@@H](CCCCN)C(=O)N[C@H](C(=O)N[C@@H](CC(C)C)C(=O)N[C@@H](C)C(=O)N[C@@H](CCC(N)=O)C(=O)N[C@@H](CC(C)C)C(=O)N[C@@H](CO)C(=O)N[C@@H](C)C(=O)N[C@@H](CCCNC(=N)N)C(=O)N[C@@H](CCCCN)C(=O)N[C@@H](CC(C)C)C(=O)N[C@@H](CC(C)C)C(=O)N[C@@H](CCC(N)=O)C(=O)N[C@@H](CC(=O)O)C(=O)N[C@H](C(=O)N[C@@H](CC(C)C)C(=O)N[C@@H](CC(N)=O)C(=O)N[C@@H](CCCNC(=N)N)C(=O)N[C@@H](CCC(N)=O)C(=O)N[C@@H](CCC(N)=O)C(=O)NCC(N)=O)[C@@H](C)CC)C(C)C)[C@@H](C)O [Compound 8, D-Ala², Cya³, Ala¹⁵, Leu²⁷-bGRF(1-32)NH₂] (H-Y[dA][Cya]AIFTNSYRKVLAQLSARKLLQDILNRQQG-NH2)
- the potency of bGRF(1-44)NH₂ [1]: 1.34
- potency (in words) ([1]; summary of the bovine pituitary cell culture assays): high potency
- relative growth hormone areas (meal-fed Holstein steers; in comparison to the standard bGRF(1-44)NH₂ (Area 100%), procedure B, second study): 307%
- remaining at 1 h [2]: 95%
- proteolytic stability in bovine plasma (in words) ([2]; summary): good stability

Compound: CC[C@H](C)[C@H](NC(=O)[C@H](C)NC(=O)[C@H](CC(=O)O)NC(=O)[C@H](C)NC(=O)CCc1ccc(O)cc1)C(=O)N[C@@H](Cc1ccccc1)C(=O)N[C@H](C(=O)N[C@@H](CO)C(=O)N[C@@H](CO)C(=O)N[C@@H](Cc1ccc(O)cc1)C(=O)N[C@@H](CCCNC(=N)N)C(=O)N[C@@H](CCCNC(=N)N)C(=O)N[C@H](C(=O)N[C@@H](CC(C)C)C(=O)N[C@@H](C)C(=O)N[C@@H](CCC(N)=O)C(=O)N[C@@H](CC(C)C)C(=O)N[C@@H](CO)C(=O)N[C@@H](C)C(=O)N[C@@H](CCCNC(=N)N)C(=O)N[C@@H](CCCNC(=N)N)C(=O)N[C@@H](CC(C)C)C(=O)N[C@@H](CC(C)C)C(=O)N[C@@H](CCC(N)=O)C(=O)N[C@@H](CS(=O)(=O)O)C(=O)N[C@H](C(=O)N[C@@H](CC(C)C)C(=O)N[C@@H](CO)C(=O)N[C@@H](CCCNC(=N)N)C(=O)N[C@@H](CCC(N)=O)C(=O)N[C@@H](CCC(N)=O)C(=O)NCC(N)=O)[C@@H](C)CC)C(C)C)[C@@H](C)O [Compound 14, DesaminoTyr¹, Ser⁸, Arg¹², Ala¹⁵, Cya²⁵, Leu²⁷, Ser²⁸, bGRF(1-32)NH₂] (Desaminotyrosyl-ADAIFTSSYRRVLAQLSARRLLQ[Cya]ILSRQQG-NH2)
- the potency of bGRF(1-44)NH₂ [1, 3]: 1.21
- remaining at 1 h [2]: 65%

Compound: YADAIFTNSYRKVLGQLSARKLLQDILNRQQG-NH2 [Leu²⁷ bGRF(1-32)NH₂, reference compound]
- serum growth hormone (GH) response, difference from bGRF(1-44)NH₂ (meal-fed Holstein steers; 3nM/100 kg bodyweight, single iv injection, compared with bGRF(1-44)NH₂): No significant differences
- area under the GH response curve (meal-fed Holstein steers; [4]): 122%
- remaining at 1 h [2]: 47%

Compound: CC[C@H](C)[C@H](NC(=O)[C@H](C)NC(=O)[C@H](CS(=O)(=O)O)NC(=O)[C@H](C)NC(=O)CCc1ccc(O)cc1)C(=O)N[C@@H](Cc1ccccc1)C(=O)N[C@H](C(=O)N[C@@H](CC(N)=O)C(=O)N[C@@H](CO)C(=O)N[C@@H](Cc1ccc(O)cc1)C(=O)N[C@@H](CCCNC(=N)N)C(=O)N[C@@H](CCCCN)C(=O)N[C@H](C(=O)N[C@@H](CC(C)C)C(=O)NCC(=O)N[C@@H](CCC(N)=O)C(=O)N[C@@H](CC(C)C)C(=O)N[C@@H](CO)C(=O)N[C@@H](C)C(=O)N[C@@H](CCCNC(=N)N)C(=O)N[C@@H](CCCCN)C(=O)N[C@@H](CC(C)C)C(=O)N[C@@H](CC(C)C)C(=O)N[C@@H](CCC(N)=O)C(=O)N[C@@H](CC(=O)O)C(=O)N[C@H](C(=O)N[C@@H](CC(C)C)C(=O)N[C@@H](CC(N)=O)C(=O)N[C@@H](CCCNC(=N)N)C(=O)N[C@@H](CCC(N)=O)C(=O)N[C@@H](CCC(N)=O)C(=O)NCC(N)=O)[C@@H](C)CC)C(C)C)[C@@H](C)O [Compound 5, Desamino-Tyr¹, Cya³, Leu²⁷-bGRF(1-32)NH₂] (Desaminotyrosyl-A[Cya]AIFTNSYRKVLGQLSARKLLQDILNRQQG-NH2)
- the potency of bGRF(1-44)NH₂ [1]: 1.01
- remaining at 1 h [2]: 76%
